Data on one compound can be found in US8343467B2 (Beiersdorf AG, priority 2004, dated 2013).

The conditions of data set [1]: compared with scopolamine, cited from earlier work.
The next data set has as its system bacteria. Briefly: antimicrobial / antibacterial effectiveness of glycopyrrolate alone and as enhancer. In kind it is cell-based. The source says:
Although this incorporation alone is not sufficient to destroy the bacteria, this makes them more susceptible to attack by antibacterial substances (deodorizing/antiperspirant agents) which can pass through or even destroy the membrane due to the impaired membrane integrity.

Molecules are shown by their SMILES.

`C[N+]1(C)CC[C@@H](OC(=O)[C@@](O)(c2ccccc2)C2CCCC2)C1` (relative stereo) [Glycopyrrolate, (±)-(R*)-3-[(S*)-(cyclopentyl hydroxyphenylacetoxy]-1,1-dimethylpyrrolidiniumbromide]: in data set [1], the “penetration of biological membranes” value is recorded as “penetrates biological membranes more slowly”. Moreover, the side effects entry in data set [1] (topical) is “fewer side effects than scopolamine”. In addition, in the data set with bacteria (glycopyrrolate alone), the antimicrobial effectiveness entry is “no or only slight antimicrobial effectiveness”. The antibacterial effect entry in the data set with bacteria (glycopyrrolate alone in the formulations used) was “does not show any antibacterial effect”.
